{"source": "patent US20260027116A1", "about": "“Methods of Treating Chronic Graft-Versus-Host Disease Following Allogeneic Hematopoietic Stem Cell Transplantation” (Kadmon Corporation, LLC, priority 2022, published 2026)", "tested_on": "patients with cGVHD", "settings": "Cohort 3 400 mg QD", "protocol": "All responses were assessed by the investigators.\nReported Adverse Events. […] All-cause mortality data collected during the study were assessed for all enrolled participants. Disease progression related death was not reported as AE.\nNumber of Participants With Treatment-emergent Adverse Events (TEAEs), and Treatment-emergent Serious Adverse Events (TESAEs). […] TEAEs included both SAEs and non-SAEs. […] Analysis was performed on safety population which included all participants who received at least 1 dose of study medication."}
{"smiles": "CC(C)NC(=O)COc1cccc(-c2nc(Nc3ccc4[nH]ncc4c3)c3ccccc3n2)c1", "note": "[Belumosudil, 2-{3-[4-(1H-indazol-5-ylamino)-2-quinazolinyl]phenoxy}-N-(propan-2-yl) acetamide]", "values": [{"measurement": "Fungal infection: # Events", "value": 0}, {"measurement": "Fungal infection: Affected/At Risk (%)", "value": "0/21 (0%)"}, {"measurement": "Gamma-glutamyltransferase increased: # Events", "value": 0}, {"measurement": "Gamma-glutamyltransferase increased: Affected/At Risk (%)", "value": "0/21 (0%)"}, {"measurement": "Gastric ulcer: # Events", "value": 0}, {"measurement": "Gastric ulcer: Affected/At Risk (%)", "value": "0/21 (0%)"}, {"measurement": "Gastrooesophageal reflux disease: # Events", "value": 2}, {"measurement": "Gastrooesophageal reflux disease: Affected/At Risk (%)", "value": "2/21 (9.52%)"}, {"measurement": "Generalised oedema: # Events", "value": 1}, {"measurement": "Generalised oedema: Affected/At Risk (%)", "value": "1/21 (4.76%)"}, {"measurement": "Genital infection fungal: # Events", "value": 0}, {"measurement": "Genital infection fungal: Affected/At Risk (%)", "value": "0/21 (0%)"}, {"measurement": "Glaucoma: # Events", "value": 0}, {"measurement": "Glucose urine present: # Events", "value": 3}, {"measurement": "Glucose urine present: Affected/At Risk (%)", "value": "1/21 (4.76%)"}, {"measurement": "Grade ≥3 AE, No. (%)", "value": "14 (67)"}, {"measurement": "Grade ≥3 ALT/AST increased, No. (%)", "value": 0}, {"measurement": "Grade ≥3 Anemia, No. (%)", "value": 0}, {"measurement": "Grade ≥3 Dyspnea, No. (%)", "value": "4 (19)"}, {"measurement": "Grade ≥3 Hyperglycemia, No. (%)", "value": "2 (10)"}, {"measurement": "Grade ≥3 Hypoxia, No. (%)", "value": "2 (10)"}, {"measurement": "Grade ≥3 Lung infection or pneumonia, No. (%)", "value": "2 (10)"}, {"measurement": "Graft versus host disease in gastrointestinal tract: # Events", "value": 0}, {"measurement": "Graft versus host disease in gastrointestinal tract: Affected/At Risk (%)", "value": "0/21 (0%)"}, {"measurement": "Gynaecomastia: # Events", "value": 0}, {"measurement": "Gynaecomastia: Affected/At Risk (%)", "value": "0/21 (0%)"}, {"measurement": "Haematuria: # Events", "value": 2}, {"measurement": "Haematuria: Affected/At Risk (%)", "value": "1/21 (4.76%)"}, {"measurement": "Hair growth abnormal: # Events", "value": 0}, {"measurement": "Hair growth abnormal: Affected/At Risk (%)", "value": "0/21 (0%)"}, {"measurement": "Headache: # Events", "value": 8}, {"measurement": "Headache: Affected/At Risk (%)", "value": "6/21 (28.57%)"}, {"measurement": "Hodgkin's disease recurrent: # Events", "value": 0}, {"measurement": "Hodgkin's disease recurrent: Affected/At Risk (%)", "value": "0/21 (0%)"}, {"measurement": "Hordeolum: # Events", "value": 1}, {"measurement": "Hordeolum: Affected/At Risk (%)", "value": "1/21 (4.76%)"}, {"measurement": "Hot flush: # Events", "value": 0}, {"measurement": "Hot flush: Affected/At Risk (%)", "value": "0/21 (0%)"}, {"measurement": "Hyperglycemia: # Events", "value": 8}, {"measurement": "Hyperglycemia: Affected/At Risk (%)", "value": "3/21 (14.29%)"}, {"measurement": "Hyperhidrosis: # Events", "value": 1}, {"measurement": "Hyperhidrosis: Affected/At Risk (%)", "value": "1/21 (4.76%)"}, {"measurement": "Hyperkalaemia: # Events", "value": 4}, {"measurement": "Hyperkalaemia: Affected/At Risk (%)", "value": "3/21 (14.29%)"}, {"measurement": "Hypertension: # Events", "value": 6}, {"measurement": "Hypertension: Affected/At Risk (%)", "value": "4/21 (19.05%)"}, {"measurement": "Hyperthyroidism: # Events", "value": 1}, {"measurement": "Hyperthyroidism: Affected/At Risk (%)", "value": "1/21 (4.76%)"}, {"measurement": "Hypertriglyceridaemia: # Events", "value": 0}, {"measurement": "Hypertriglyceridaemia: Affected/At Risk (%)", "value": "0/21 (0%)"}, {"measurement": "Hyperuricaemia: # Events", "value": 5}, {"measurement": "Hyperuricaemia: Affected/At Risk (%)", "value": "3/21 (14.29%)"}, {"measurement": "Hypoaesthesia: # Events", "value": 1}, {"measurement": "Hypoaesthesia: Affected/At Risk (%)", "value": "1/21 (4.76%)"}, {"measurement": "Hypocalcaemia: # Events", "value": 1}, {"measurement": "Hypocalcaemia: Affected/At Risk (%)", "value": "1/21 (4.76%)"}, {"measurement": "Hypogonadism: # Events", "value": 0}, {"measurement": "Hypogonadism: Affected/At Risk (%)", "value": "0/21 (0%)"}, {"measurement": "Hypokalaemia: # Events", "value": 0}, {"measurement": "Hypokalaemia: Affected/At Risk (%)", "value": "0/21 (0%)"}, {"measurement": "Hypomagnesaemia: # Events", "value": 1}, {"measurement": "Hypomagnesaemia: Affected/At Risk (%)", "value": "1/21 (4.76%)"}, {"measurement": "Hyponatraemia: # Events", "value": 2}, {"measurement": "Hyponatraemia: Affected/At Risk (%)", "value": "2/21 (9.52%)"}, {"measurement": "Hypophosphataemia: # Events", "value": 1}, {"measurement": "Hypophosphataemia: Affected/At Risk (%)", "value": "1/21 (4.76%)"}, {"measurement": "Hypothermia: # Events", "value": 0}, {"measurement": "Hypothermia: Affected/At Risk (%)", "value": "0/21 (0%)"}, {"measurement": "Hypothyroidism: # Events", "value": 4}, {"measurement": "Hypothyroidism: Affected/At Risk (%)", "value": "3/21 (14.29%)"}, {"measurement": "Hypoxia: # Events", "value": 3}, {"measurement": "Hypoxia: Affected/At Risk (%)", "value": "3/21 (14.29%)"}, {"measurement": "Impaired healing: # Events", "value": 0}, {"measurement": "Impaired healing: Affected/At Risk (%)", "value": "0/21 (0%)"}, {"measurement": "Influenza like illness: # Events", "value": 0}, {"measurement": "Influenza like illness: Affected/At Risk (%)", "value": "0/21 (0%)"}, {"measurement": "Influenza: # Events", "value": 2}, {"measurement": "Influenza: Affected/At Risk (%)", "value": "2/21 (9.52%)"}, {"measurement": "Insomnia: # Events", "value": 3}, {"measurement": "Insomnia: Affected/At Risk (%)", "value": "3/21 (14.29%)"}, {"measurement": "Irritability: # Events", "value": 0}, {"measurement": "Irritability: Affected/At Risk (%)", "value": "0/21 (0%)"}, {"measurement": "Joint range of motion decreased: # Events", "value": 1}, {"measurement": "Joint range of motion decreased: Affected/At Risk (%)", "value": "1/21 (4.76%)"}, {"measurement": "Lacrimation increased: # Events", "value": 0}, {"measurement": "Lacrimation increased: Affected/At Risk (%)", "value": "0/21 (0%)"}, {"measurement": "Leukaemia recurrent: # Events", "value": 0}, {"measurement": "Leukaemia recurrent: Affected/At Risk (%)", "value": "0/21 (0%)"}, {"measurement": "Leukocytosis: # Events", "value": 1}, {"measurement": "Leukocytosis: Affected/At Risk (%)", "value": "1/21 (4.76%)"}, {"measurement": "Ligament sprain: # Events", "value": 0}, {"measurement": "Ligament sprain: Affected/At Risk (%)", "value": "0/21 (0%)"}, {"measurement": "Limb injury: # Events", "value": 1}, {"measurement": "Limb injury: Affected/At Risk (%)", "value": "1/21 (4.76%)"}, {"measurement": "Macular degeneration: # Events", "value": 0}, {"measurement": "Macular degeneration: Affected/At Risk (%)", "value": "0/21 (0%)"}, {"measurement": "Migraine: # Events", "value": 0}, {"measurement": "Migraine: Affected/At Risk (%)", "value": "0/21 (0%)"}, {"measurement": "Muscle spasms: # Events", "value": 6}, {"measurement": "Muscle spasms: Affected/At Risk (%)", "value": "6/21 (28.57%)"}, {"measurement": "Muscle spasticity: # Events", "value": 1}, {"measurement": "Muscle spasticity: Affected/At Risk (%)", "value": "1/21 (4.76%)"}, {"measurement": "Muscular weakness: # Events", "value": 2}, {"measurement": "Muscular weakness: Affected/At Risk (%)", "value": "2/21 (9.52%)"}, {"measurement": "Musculoskeletal chest pain: # Events", "value": 1}, {"measurement": "Musculoskeletal chest pain: Affected/At Risk (%)", "value": "1/21 (4.76%)"}, {"measurement": "Myalgia: # Events", "value": 3}, {"measurement": "Myalgia: Affected/At Risk (%)", "value": "3/21 (14.29%)"}, {"measurement": "Nail disorder: # Events", "value": 0}, {"measurement": "Nail disorder: Affected/At Risk (%)", "value": "0/21 (0%)"}, {"measurement": "Nasal congestion: # Events", "value": 1}, {"measurement": "Nasal congestion: Affected/At Risk (%)", "value": "1/21 (4.76%)"}, {"measurement": "Nausea: # Events", "value": 12}, {"measurement": "Nausea: Affected/At Risk (%)", "value": "9/21 (42.86%)"}, {"measurement": "Neck pain: # Events", "value": 0}, {"measurement": "Neck pain: Affected/At Risk (%)", "value": "0/21 (0%)"}, {"measurement": "Nephrotic syndrome: # Events", "value": 0}, {"measurement": "Nephrotic syndrome: Affected/At Risk (%)", "value": "0/21 (0%)"}, {"measurement": "Neuropathy peripheral: # Events", "value": 2}, {"measurement": "Neuropathy peripheral: Affected/At Risk (%)", "value": "1/21 (4.76%)"}, {"measurement": "Neutrophil count decreased: # Events", "value": 1}, {"measurement": "Neutrophil count decreased: Affected/At Risk (%)", "value": "1/21 (4.76%)"}, {"measurement": "Nocturia: # Events", "value": 0}, {"measurement": "Nocturia: Affected/At Risk (%)", "value": "0/21 (0%)"}, {"measurement": "Non-cardiac chest pain: # Events", "value": 1}, {"measurement": "Non-cardiac chest pain: Affected/At Risk (%)", "value": "1/21 (4.76%)"}, {"measurement": "Obesity: # Events", "value": 0}, {"measurement": "Obesity: Affected/At Risk (%)", "value": "0/21 (0%)"}, {"measurement": "Oedema peripheral: # Events", "value": 6}, {"measurement": "Oedema peripheral: Affected/At Risk (%)", "value": "6/21 (28.57%)"}, {"measurement": "Oedema: # Events", "value": 0}, {"measurement": "Oedema: Affected/At Risk (%)", "value": "0/21 (0%)"}, {"measurement": "Oesophageal ulcer: # Events", "value": 0}, {"measurement": "Oesophageal ulcer: Affected/At Risk (%)", "value": "0/21 (0%)"}, {"measurement": "Oral candidiasis: # Events", "value": 0}, {"measurement": "Oral candidiasis: Affected/At Risk (%)", "value": "0/21 (0%)"}, {"measurement": "Oropharyngeal pain: # Events", "value": 1}, {"measurement": "Oropharyngeal pain: Affected/At Risk (%)", "value": "1/21 (4.76%)"}, {"measurement": "Orthopnoea: # Events", "value": 0}, {"measurement": "Orthopnoea: Affected/At Risk (%)", "value": "0/21 (0%)"}, {"measurement": "Osteonecrosis: # Events", "value": 0}, {"measurement": "Osteonecrosis: Affected/At Risk (%)", "value": "0/21 (0%)"}, {"measurement": "Osteopenia: # Events", "value": 0}, {"measurement": "Osteopenia: Affected/At Risk (%)", "value": "0/21 (0%)"}, {"measurement": "Osteoporosis: # Events", "value": 0}, {"measurement": "Osteoporosis: Affected/At Risk (%)", "value": "0/21 (0%)"}, {"measurement": "Overdose: # Events", "value": 0}, {"measurement": "Overdose: Affected/At Risk (%)", "value": "0/21 (0%)"}, {"measurement": "Pain in extremity: # Events", "value": 5}, {"measurement": "Pain in extremity: Affected/At Risk (%)", "value": "4/21 (19.05%)"}, {"measurement": "Pain: # Events", "value": 1}, {"measurement": "Pain: Affected/At Risk (%)", "value": "1/21 (4.76%)"}, {"measurement": "Palpitations: # Events", "value": 1}, {"measurement": "Palpitations: Affected/At Risk (%)", "value": "1/21 (4.76%)"}, {"measurement": "Paraesthesia: # Events", "value": 1}, {"measurement": "Paraesthesia: Affected/At Risk (%)", "value": "1/21 (4.76%)"}, {"measurement": "Pericardial effusion: # Events", "value": 0}, {"measurement": "Pericardial effusion: Affected/At Risk (%)", "value": "0/21 (0%)"}, {"measurement": "Peripheral coldness: # Events", "value": 0}, {"measurement": "Peripheral coldness: Affected/At Risk (%)", "value": "0/21 (0%)"}, {"measurement": "Peripheral sensory neuropathy: # Events", "value": 0}, {"measurement": "Peripheral sensory neuropathy: Affected/At Risk (%)", "value": "0/21 (0%)"}, {"measurement": "Phlebitis: # Events", "value": 0}, {"measurement": "Phlebitis: Affected/At Risk (%)", "value": "0/21 (0%)"}, {"measurement": "Photophobia: # Events", "value": 2}, {"measurement": "Photophobia: Affected/At Risk (%)", "value": "2/21 (9.52%)"}, {"measurement": "Platelet count decreased: # Events", "value": 0}, {"measurement": "Platelet count decreased: Affected/At Risk (%)", "value": "0/21 (0%)"}, {"measurement": "Pleural effusion: # Events", "value": 1}]}
